Test results taken from patent publication US8163952B2, “RAR receptor agonist ligands and use thereof in human medicine and cosmetics” (Galderma Research & Development, priority 2007, dated 2012).
pKd: −log10 of the molar value.

Key:
RARα = target: T1, RARα (Homo sapiens, UniProt P10276); assay: Transactivation assay (luciferase reporter, crossed curves vs reference agonist, Schild regression); format: cell-based; details: HeLa stable transfectants, ERE-βGlob-Luc-SV-Neo reporter and RARα ER-DBD-puro; 18 hours incubation; apparent Kd; read-out: RARα Kdapp
T1 sequence (P10276 183-462 limits assumed): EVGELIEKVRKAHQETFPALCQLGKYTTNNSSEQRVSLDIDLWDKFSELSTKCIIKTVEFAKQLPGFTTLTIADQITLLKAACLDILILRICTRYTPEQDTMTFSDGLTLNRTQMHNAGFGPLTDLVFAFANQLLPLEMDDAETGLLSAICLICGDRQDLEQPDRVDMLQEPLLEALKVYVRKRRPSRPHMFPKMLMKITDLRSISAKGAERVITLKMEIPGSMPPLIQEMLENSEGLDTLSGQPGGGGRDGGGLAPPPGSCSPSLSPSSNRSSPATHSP
Method: (§1) This activity on RARα, β and γ receptors is measured in a transactivation test and quantified by means of the dissociation constant Kdapp (apparent).
(§2) The activation of receptors with an agonist (activator) in HeLa cells leads to the expression of a reporter gene, luciferase, which, in the presence of a substrate, generates light. The activation of the receptors can thus be measured by quantifying the luminescence produced after incubation of the cells in the presence of a reference agonist. Inhibitory products will displace the agonist from its site, thus preventing activation of the receptor. The activity is measured by quantifying the decrease in light produced. This measurement makes it possible to determine the inhibitory activity of the compounds according to the invention.
(§3) In this study, a constant is determined which represents the affinity of the molecules for the receptor. Since this value can fluctuate depending on the basal activity and the expression of the receptor, it is referred to as the Kd apparent (KdApp).
(§4) To determine this constant, “crossed curves” of the test product against a reference agonist, 4-[2-(5,5,8,8-tetramethyl-5,6,7,8-tetrahydronaphthalen-2-yl)propenyl]benzoic acid, are realized in 96-well plates. The test product is used at 10 concentrations and the reference agonist at 7 concentrations. In each well, the cells are in contact with a concentration of the test product and with a concentration of the reference agonist, 4-[2-(5,5,8,8-tetramethyl-5,6,7,8-tetrahydronaphthalen-2-yl)]propenyl]benzoic acid. Measurements are also carried out for the total agonist control (4-[2-(5,5,8,8-tetramethyl-5,6,7,8-tetrahydro-naphthalen-2-yl)propenyl]benzoic acid) and the inverse agonist control, 4-{(E)-3[4-(4-tert-butylphenyl)-5,5,8,8-tetramethyl-5,6,7,8-tetrahydronaphthalen-2-yl]-3-oxopropenyl}benzoic acid.
(§5) These AC50 values are used to calculate the Schild regression by plotting a straight line corresponding to the Schild equation (“Quantitation in receptor pharmacology” Tervy P. Kenakin, Receptors and Channels, 2001, 7, 371-385).
(§6) The HeLa cell lines used are stable transfectants containing the ERE-βGlob-Luc-SV-Neo (reporter gene) and RAR (α, β, γ) ER-DBD-puro plasmids. These cells are seeded in 96-well plates at a rate of 10 000 cells per well in 100 μl of DMEM medium without phenol red, supplemented with 10% of defatted calf serum. The plates are then incubated at 37° C., 7% CO2, for 4 hours.
(§7) The plates are then incubated for 18 hours at 37° C., 7% CO2. The culture medium is removed by turning the plates over, and 100 μl of a 1:1 PBS/luciferin mixture are added to each well. After 5 minutes, the plates are read using a luminescence reader.

RARγ = target: T2, RARγ (Homo sapiens, UniProt P13631); assay: as above; format: cell-based; details: HeLa stable transfectants, ERE-βGlob-Luc-SV-Neo reporter and RARγ ER-DBD-puro; 18 hours incubation; apparent Kd; read-out: RARγ Kdapp
T2 sequence (P13631 185-454 limits assumed): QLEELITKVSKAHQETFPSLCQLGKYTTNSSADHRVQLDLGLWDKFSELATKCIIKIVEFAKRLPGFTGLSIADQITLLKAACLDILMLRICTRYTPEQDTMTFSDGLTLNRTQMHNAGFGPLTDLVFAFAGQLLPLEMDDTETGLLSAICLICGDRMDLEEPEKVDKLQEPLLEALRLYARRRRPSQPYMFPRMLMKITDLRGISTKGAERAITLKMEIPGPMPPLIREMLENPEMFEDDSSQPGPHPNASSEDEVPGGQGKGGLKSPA
Method: as §1, §2, §3, §4, §5, §6, §7

RARβ = target: T3, RARβ (Homo sapiens, UniProt P10826); assay: as above; format: cell-based; details: HeLa stable transfectants, ERE-βGlob-Luc-SV-Neo reporter and RARβ ER-DBD-puro; 18 hours incubation; apparent Kd; read-out: RARβ Kdapp
T3 sequence (P10826 154-455 limits assumed): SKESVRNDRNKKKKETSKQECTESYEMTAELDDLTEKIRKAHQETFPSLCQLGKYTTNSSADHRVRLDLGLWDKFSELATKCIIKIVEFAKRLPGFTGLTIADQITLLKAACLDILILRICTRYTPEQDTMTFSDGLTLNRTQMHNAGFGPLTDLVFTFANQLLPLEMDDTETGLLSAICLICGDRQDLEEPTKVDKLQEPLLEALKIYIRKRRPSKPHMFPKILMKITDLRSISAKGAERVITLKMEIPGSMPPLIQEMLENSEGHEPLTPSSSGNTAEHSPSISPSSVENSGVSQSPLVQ
Method: as §1, §2, §3, §4, §5, §6, §7

| pKd (RARα) | pKd (RARγ) | pKd (RARβ) | melting point | Structure (SMILES) |
| --- | --- | --- | --- | --- |
| 6.60 | 7.82 | 6.92 | – | CN(C)c1ccc(C(O)C#Cc2ccc(C(=O)O)cc2)cc1C(C)(C)C (stereo not drawn) [Compound of example 3, 4-[3-(3-tert-butyl-4-dimethylaminophenyl)-3-hydroxyprop-1-ynyl]benzoic acid] |
| 6.00 | 7.52 | 7.22 | – | CCN(CC)c1ccc(C(O)C#Cc2ccc(C(=O)O)cc2)cc1C(C)C (stereo not drawn) [Compound of example 11, 4-[3-(4-diethylamino-3-isopropylphenyl)-3-hydroxyprop-1-ynyl]benzoic acid] |
| 6.20 | 7.43 | 6.73 | 140 °C | CCN(CC)c1ccc(C(O)C#Cc2ccc(C(=O)O)cc2)cc1C(C)(C)C (stereo not drawn) [Compound of example 1, 4-[3-(3-tert-butyl-4-diethylaminophenyl)-3-hydroxyprop-1-ynyl]benzoic acid] |

Further lines, the compound ahead of its results:

| Structure (SMILES) | pKd (RARα) | pKd (RARγ) | pKd (RARβ) | melting point |
| --- | --- | --- | --- | --- |
| CC(C)c1cc(C(O)C#Cc2ccc(C(=O)O)cc2)cc(C(C)C)c1N(C)C (stereo not drawn) [Compound of example 9, 4-[3-(4-Dimethylamino-3,5-diisopropylphenyl)-3-hydroxyprop-1-ynyl]benzoic acid] | 7.22 | 9.30 | 7.22 | – |
| CCN(CC)c1ccc(C(O)C#Cc2ccc(C(=O)O)c(O)c2)cc1C(C)(C)C (stereo not drawn) [Compound of example 6, 4-[3-(3-tert-butyl-4-diethylaminophenyl)-3-hydroxyprop-1-ynyl]-2-hydroxybenzoic acid] | 6.60 | 7.22 | 6.30 | – |
| CN(C)c1c(Cl)cc(C(O)C#Cc2ccc(C(=O)O)c(O)c2)cc1C(C)(C)C (stereo not drawn) [Compound of example 8, 4-[3-(3-tert-butyl-5-chloro-4-dimethylaminophenyl)-3-hydroxyprop-1-ynyl]-2-hydroxybenzoic acid] | 6.60 | 8.40 | 7.22 | – |
| CC(C)(C)c1cc(C(O)C#Cc2ccc(C(=O)O)cc2)ccc1N1CCCCC1 (stereo not drawn) [Compound of example 5, 4-[3-(3-tert-butyl-4-piperidin-1-ylphenyl)-3-hydroxyprop-1-ynyl]benzoic acid] | 5.40 | – | 5.70 | – |
| CC(C)c1cc(C(O)C#Cc2ccc(C(=O)O)c(O)c2)cc(C(C)C)c1N(C)C (stereo not drawn) [Compound of example 10, 4-[3-(4-Dimethylamino-3,5-diisopropylphenyl)-3-hydroxyprop-1-ynyl]-2-hydroxybenzoic acid] | 6.00 | 9.00 | 6.92 | – |
| CN(C)c1c(Cl)cc(C(O)C#Cc2ccc(C(=O)O)cc2)cc1C(C)(C)C (stereo not drawn) [Compound of example 7, 4-[3-(3-tert-butyl-5-chloro-4-dimethylaminophenyl)-3-hydroxyprop-1-ynyl]benzoic acid] | 6.92 | 8.70 | 7.82 | – |
| CC(C)(C)c1cc(C(O)C#Cc2ccc(C(=O)O)cc2)ccc1N1CCCC1 (stereo not drawn) [Compound of example 4, 4-[3-(3-tert-butyl-4-pyrrolidin-1-ylphenyl)-3-hydroxyprop-1-ynyl]benzoic acid] | 6.00 | 7.52 | 6.60 | – |
